Results: the NIST ThermoML archive (doi:10.1021/je060271a)
Where “and” joins values, the source holds several entries; their conditions need not be identical. Equal entries are not always repeated. ± gives the expanded uncertainty stated by the source.

Details: Liquid, Vibrating tube method

CCCCCC(=O)OCC(COC(=O)CCCCC)(COC(=O)CCCCC)COC(=O)CCCCC [pentaerythritol tetrahexanoate]
Details | mass density
343.15 K, 29943 kPa | 978.1 ± 1.2 kg/m3
343.15 K, 29977 kPa | 978.2 ± 1.2 kg/m3
343.15 K, 30005 kPa | 978.1 ± 1.2 kg/m3
343.15 K, 30034 kPa | 978.2 ± 1.2 kg/m3
343.15 K, 30068 kPa | 978.2 ± 1.2 kg/m3
343.15 K, 34037 kPa | 980.7 ± 1.2 kg/m3 and 980.8 ± 1.2 kg/m3
343.15 K, 34038 kPa | 980.6 ± 1.2 kg/m3
343.15 K, 34070 kPa | 980.7 ± 1.2 kg/m3
343.15 K, 34080 kPa | 980.7 ± 1.2 kg/m3
343.15 K, 34257 kPa | 980.8 ± 1.2 kg/m3
343.15 K, 34258 kPa | 980.9 ± 1.2 kg/m3
343.15 K, 34259 kPa | 981 ± 1.2 kg/m3 and 980.9 ± 1.2 kg/m3
343.15 K, 34260 kPa | 980.7 ± 1.2 kg/m3 and 980.8 ± 1.2 kg/m3
343.15 K, 34261 kPa | 980.8 ± 1.2 kg/m3
343.15 K, 34262 kPa | 980.8 ± 1.2 kg/m3 and 980.9 ± 1.2 kg/m3
343.15 K, 34263 kPa | 980.7 ± 1.2 kg/m3
343.15 K, 34264 kPa | 980.9 ± 1.2 kg/m3 and 980.8 ± 1.2 kg/m3
343.15 K, 34271 kPa | 980.8 ± 1.2 kg/m3
343.15 K, 34272 kPa | 980.9 ± 1.2 kg/m3
343.15 K, 34279 kPa | 980.9 ± 1.2 kg/m3 and 981 ± 1.2 kg/m3
343.15 K, 34280 kPa | 980.8 ± 1.2 kg/m3 and 980.9 ± 1.2 kg/m3
343.15 K, 34281 kPa | 980.9 ± 1.2 kg/m3
343.15 K, 34282 kPa | 980.8 ± 1.2 kg/m3 and 980.9 ± 1.2 kg/m3
343.16 K, 205.2 kPa | 957.2 ± 1.2 kg/m3
343.16 K, 205.3 kPa | 957.3 ± 1.2 kg/m3
343.16 K, 205.5 kPa | 957.1 ± 1.2 kg/m3 and 957.3 ± 1.2 kg/m3
343.16 K, 205.7 kPa | 957.3 ± 1.2 kg/m3
343.16 K, 205.9 kPa | 957.3 ± 1.2 kg/m3 and 957.2 ± 1.2 kg/m3
343.16 K, 206 kPa | 957.2 ± 1.2 kg/m3 and 957.3 ± 1.2 kg/m3
343.16 K, 206.2 kPa | 957.2 ± 1.2 kg/m3 and 957.3 ± 1.2 kg/m3
343.16 K, 206.4 kPa | 957.3 ± 1.2 kg/m3 and 957.2 ± 1.2 kg/m3
343.16 K, 206.6 kPa | 957.2 ± 1.2 kg/m3
343.16 K, 206.7 kPa | 957.2 ± 1.2 kg/m3
343.16 K, 207.1 kPa | 957.3 ± 1.2 kg/m3
343.16 K, 207.4 kPa | 957.3 ± 1.2 kg/m3 and 957.1 ± 1.2 kg/m3
343.16 K, 207.6 kPa | 957.2 ± 1.2 kg/m3 and 957.1 ± 1.2 kg/m3
343.16 K, 207.8 kPa | 957.3 ± 1.2 kg/m3
343.16 K, 207.9 kPa | 957.3 ± 1.2 kg/m3 and 957.2 ± 1.2 kg/m3
343.16 K, 208 kPa | 957.1 ± 1.2 kg/m3 and 957.3 ± 1.2 kg/m3
343.16 K, 208.1 kPa | 957.2 ± 1.2 kg/m3 and 957.3 ± 1.2 kg/m3
343.16 K, 208.5 kPa | 957.4 ± 1.2 kg/m3 and 957.2 ± 1.2 kg/m3 and 957.3 ± 1.2 kg/m3
343.16 K, 208.6 kPa | 957.2 ± 1.2 kg/m3 and 957.1 ± 1.2 kg/m3
343.16 K, 208.7 kPa | 957.2 ± 1.2 kg/m3
343.16 K, 209.9 kPa | 957.1 ± 1.2 kg/m3
343.16 K, 210 kPa | 957.4 ± 1.2 kg/m3 and 957.2 ± 1.2 kg/m3
343.16 K, 210.2 kPa | 957.4 ± 1.2 kg/m3
343.16 K, 210.4 kPa | 957.2 ± 1.2 kg/m3
343.16 K, 210.6 kPa | 957.2 ± 1.2 kg/m3
343.16 K, 210.9 kPa | 957.2 ± 1.2 kg/m3
343.16 K, 211.1 kPa | 957.3 ± 1.2 kg/m3 and 957.2 ± 1.2 kg/m3
343.16 K, 211.3 kPa | 957.2 ± 1.2 kg/m3 and 957.3 ± 1.2 kg/m3
343.16 K, 211.4 kPa | 957.3 ± 1.2 kg/m3
343.16 K, 211.6 kPa | 957.2 ± 1.2 kg/m3
343.16 K, 211.8 kPa | 957.2 ± 1.2 kg/m3
343.16 K, 211.9 kPa | 957.4 ± 1.2 kg/m3 and 957.2 ± 1.2 kg/m3 and 957.5 ± 1.2 kg/m3
343.16 K, 212.1 kPa | 957 ± 1.2 kg/m3
343.16 K, 212.3 kPa | 957.3 ± 1.2 kg/m3
343.16 K, 212.6 kPa | 957.3 ± 1.2 kg/m3
343.16 K, 214.2 kPa | 957.2 ± 1.2 kg/m3 and 957.4 ± 1.2 kg/m3
343.16 K, 214.4 kPa | 957.2 ± 1.2 kg/m3
343.16 K, 214.5 kPa | 957.3 ± 1.2 kg/m3
343.16 K, 214.6 kPa | 957.2 ± 1.2 kg/m3
343.16 K, 214.7 kPa | 957.2 ± 1.2 kg/m3
343.16 K, 214.9 kPa | 957.3 ± 1.2 kg/m3 and 957.2 ± 1.2 kg/m3
343.16 K, 215.1 kPa | 957.2 ± 1.2 kg/m3
343.16 K, 215.8 kPa | 957.2 ± 1.2 kg/m3
343.16 K, 216.1 kPa | 957.3 ± 1.2 kg/m3 and 957.1 ± 1.2 kg/m3
343.16 K, 216.3 kPa | 957.3 ± 1.2 kg/m3 and 957.4 ± 1.2 kg/m3
343.16 K, 216.8 kPa | 957.4 ± 1.2 kg/m3
343.16 K, 217 kPa | 957.3 ± 1.2 kg/m3 and 957.2 ± 1.2 kg/m3
343.16 K, 217.5 kPa | 957.4 ± 1.2 kg/m3 and 957.3 ± 1.2 kg/m3
343.16 K, 217.7 kPa | 957.1 ± 1.2 kg/m3 and 957.5 ± 1.2 kg/m3 and 957.2 ± 1.2 kg/m3
343.16 K, 217.9 kPa | 957.3 ± 1.2 kg/m3 and 957.2 ± 1.2 kg/m3
343.16 K, 218 kPa | 957.2 ± 1.2 kg/m3 and 957.3 ± 1.2 kg/m3
343.16 K, 218.2 kPa | 957.3 ± 1.2 kg/m3 and 957.2 ± 1.2 kg/m3
343.16 K, 218.6 kPa | 957.3 ± 1.2 kg/m3 and 957.2 ± 1.2 kg/m3
343.16 K, 218.7 kPa | 957.4 ± 1.2 kg/m3
343.16 K, 219.6 kPa | 957.3 ± 1.2 kg/m3
343.16 K, 219.8 kPa | 957.3 ± 1.2 kg/m3
343.16 K, 221 kPa | 957.2 ± 1.2 kg/m3
343.16 K, 221.2 kPa | 957.2 ± 1.2 kg/m3 and 957.3 ± 1.2 kg/m3
343.16 K, 221.3 kPa | 957.3 ± 1.2 kg/m3
343.16 K, 221.5 kPa | 957.2 ± 1.2 kg/m3
343.16 K, 221.7 kPa | 957.1 ± 1.2 kg/m3 and 957.3 ± 1.2 kg/m3
343.16 K, 221.9 kPa | 957.2 ± 1.2 kg/m3
343.16 K, 222.1 kPa | 957.3 ± 1.2 kg/m3
343.16 K, 222.2 kPa | 957.3 ± 1.2 kg/m3 and 957.2 ± 1.2 kg/m3
343.16 K, 222.4 kPa | 957.3 ± 1.2 kg/m3
343.16 K, 222.6 kPa | 957.3 ± 1.2 kg/m3 and 957.2 ± 1.2 kg/m3
343.16 K, 224.6 kPa | 957.2 ± 1.2 kg/m3
343.16 K, 224.8 kPa | 957.1 ± 1.2 kg/m3
343.16 K, 225.2 kPa | 957.3 ± 1.2 kg/m3
343.16 K, 225.5 kPa | 957.3 ± 1.2 kg/m3 and 957.2 ± 1.2 kg/m3
343.16 K, 225.7 kPa | 957.2 ± 1.2 kg/m3
343.16 K, 226 kPa | 957.2 ± 1.2 kg/m3
343.16 K, 226.2 kPa | 957.2 ± 1.2 kg/m3
343.16 K, 226.4 kPa | 957.1 ± 1.2 kg/m3
343.16 K, 226.6 kPa | 957.3 ± 1.2 kg/m3
343.16 K, 226.7 kPa | 957.2 ± 1.2 kg/m3
343.16 K, 227.3 kPa | 957.3 ± 1.2 kg/m3
343.16 K, 227.4 kPa | 957.3 ± 1.2 kg/m3
343.16 K, 227.6 kPa | 957.3 ± 1.2 kg/m3
343.16 K, 227.8 kPa | 957.3 ± 1.2 kg/m3
343.16 K, 227.9 kPa | 957.2 ± 1.2 kg/m3
343.16 K, 228 kPa | 957.3 ± 1.2 kg/m3 and 957.2 ± 1.2 kg/m3
343.16 K, 228.1 kPa | 957.4 ± 1.2 kg/m3
343.16 K, 228.3 kPa | 957.1 ± 1.2 kg/m3 and 957.2 ± 1.2 kg/m3
343.16 K, 228.8 kPa | 957.2 ± 1.2 kg/m3 and 957.3 ± 1.2 kg/m3
343.16 K, 229 kPa | 957.3 ± 1.2 kg/m3
343.16 K, 229.2 kPa | 957.3 ± 1.2 kg/m3 and 957.2 ± 1.2 kg/m3
343.16 K, 229.3 kPa | 957.2 ± 1.2 kg/m3
343.16 K, 229.7 kPa | 957.1 ± 1.2 kg/m3 and 957.3 ± 1.2 kg/m3
343.16 K, 229.9 kPa | 957.3 ± 1.2 kg/m3
343.16 K, 230.1 kPa | 957.4 ± 1.2 kg/m3
343.16 K, 230.4 kPa | 957.3 ± 1.2 kg/m3
343.16 K, 230.6 kPa | 957.2 ± 1.2 kg/m3
343.16 K, 230.7 kPa | 957.2 ± 1.2 kg/m3
343.16 K, 230.9 kPa | 957.3 ± 1.2 kg/m3
343.16 K, 231.4 kPa | 957.1 ± 1.2 kg/m3
343.16 K, 239.3 kPa | 957.2 ± 1.2 kg/m3
343.16 K, 239.4 kPa | 957.2 ± 1.2 kg/m3
343.16 K, 239.6 kPa | 957.3 ± 1.2 kg/m3
343.16 K, 239.8 kPa | 957.2 ± 1.2 kg/m3
343.16 K, 239.9 kPa | 957.3 ± 1.2 kg/m3
343.16 K, 241.9 kPa | 957.3 ± 1.2 kg/m3
343.16 K, 246.2 kPa | 957.2 ± 1.2 kg/m3
343.16 K, 246.5 kPa | 957.2 ± 1.2 kg/m3
343.16 K, 246.9 kPa | 957.2 ± 1.2 kg/m3
343.16 K, 247.1 kPa | 957.2 ± 1.2 kg/m3
343.16 K, 247.2 kPa | 957.3 ± 1.2 kg/m3
343.16 K, 247.4 kPa | 957.3 ± 1.2 kg/m3
343.16 K, 247.6 kPa | 957.2 ± 1.2 kg/m3 and 957.3 ± 1.2 kg/m3
343.16 K, 247.8 kPa | 957.2 ± 1.2 kg/m3 and 957.3 ± 1.2 kg/m3
343.16 K, 247.9 kPa | 957.4 ± 1.2 kg/m3 and 957.3 ± 1.2 kg/m3
343.16 K, 248.1 kPa | 957.4 ± 1.2 kg/m3
343.16 K, 248.3 kPa | 957.3 ± 1.2 kg/m3
343.16 K, 248.6 kPa | 957.3 ± 1.2 kg/m3
343.16 K, 248.8 kPa | 957.3 ± 1.2 kg/m3 and 957.2 ± 1.2 kg/m3
343.16 K, 249 kPa | 957.2 ± 1.2 kg/m3
343.16 K, 249.2 kPa | 957.2 ± 1.2 kg/m3
343.16 K, 249.8 kPa | 957.2 ± 1.2 kg/m3
343.16 K, 250.4 kPa | 957.2 ± 1.2 kg/m3
343.16 K, 250.6 kPa | 957.3 ± 1.2 kg/m3
343.16 K, 250.7 kPa | 957.1 ± 1.2 kg/m3
343.16 K, 250.9 kPa | 957.3 ± 1.2 kg/m3 and 957.2 ± 1.2 kg/m3
